# ChEMBL document CHEMBL1201862, “PubChem BioAssay data set” (2004)
#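 Five concentrations, 48 hours, 96-well plates. At the GI50, growth is halved.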 Activity calls are given as the source filed them. Rule as the data show it: active = GI50 up to about 1.1 µM and inactive = higher.
# Columns and labels:
# Experiment in all cases: NCI-60 cell line screen, 48 h
# Malme-3M = test system: Malme-3M
# MOLT-4 = test system: MOLT-4
# OVCAR-4 = test system: OVCAR-4
# Hs-578T = test system: Hs-578T
# LOX IMVI = test system: LOX IMVI
# MCF7 = test system: MCF7
# A549 = test system: A549
# MDA-MB-231 = test system: MDA-MB-231
# K562 = test system: K562
# 786-0 = test system: 786-0
# HT-29 = test system: HT-29
# SNB-19 = test system: SNB-19
# SK-MEL-5 = test system: SK-MEL-5
# T47D = test system: T47D
# OVCAR-5 = test system: OVCAR-5
# IGROV-1 = test system: IGROV-1
# HCT-15 = test system: HCT-15
# RPMI-8226 = test system: RPMI-8226
# COLO 205 = test system: COLO 205
# HL-60 = test system: HL-60
SMILES,GI50 (Malme-3M),GI50 (MOLT-4),GI50 (OVCAR-4),GI50 (Hs-578T),GI50 (LOX IMVI),GI50 (MCF7),GI50 (A549),GI50 (MDA-MB-231),GI50 (K562),GI50 (786-0),GI50 (HT-29),GI50 (SNB-19),GI50 (SK-MEL-5),GI50 (T47D),GI50 (OVCAR-5),GI50 (IGROV-1),GI50 (HCT-15),GI50 (RPMI-8226),GI50 (COLO 205),GI50 (HL-60)
Clc1ccc(OCc2nnc(CCCCCCCCc3nnc(COc4ccc(Cl)cc4)n3Nc3ccccc3)n2Nc2ccccc2)cc1,12.5 µM (inactive),12.3 µM (inactive),15.7 µM (inactive),22.9 µM (inactive),21.7 µM (inactive),3.75 µM (inactive),1.19 µM (inactive),26.2 µM (inactive),0.343 µM (active),15.3 µM (inactive),5.24 µM (inactive),12.9 µM (inactive),0.463 µM (active),22.1 µM (inactive),2.74 µM (inactive),7.23 µM (inactive),4.06 µM,0.21 µM (active),0.318 µM (active),
c1csc(-c2cc(-c3ccsc3)c(-c3cccs3)s2)c1,59.2 µM (inactive),30.1 µM (inactive),> 100 µM (inactive),> 100 µM (inactive),,6.75 µM (inactive),92.7 µM (inactive),29.8 µM (inactive),69.8 µM (inactive),> 100 µM (inactive),43.6 µM (inactive),> 100 µM (inactive),53.6 µM (inactive),2.7 µM (inactive),> 100 µM (inactive),,44.1 µM,,23.1 µM (inactive),
C/C=C\C1OC1(C)c1cc(=O)c2c(C)cc3c(c2o1)C(=O)c1c(O)c(C2CC(C)(N(C)C)C(OC(C)=O)C(C)O2)cc(C2CC(N(C)C)C(O)C(C)O2)c1C3=O (configuration not stated),0.0124 µM (active),< 0.00375 µM (active),0.00461 µM (active),0.00766 µM (active),< 0.00375 µM (active),< 0.00375 µM (active),< 0.00375 µM (active),0.0067 µM (active),< 0.00375 µM (active),< 0.00375 µM (active),< 0.00375 µM (active),0.00621 µM (active),0.00414 µM (active),0.00386 µM (active),0.00546 µM (active),0.00569 µM (active),0.00404 µM,< 0.00375 µM (active),< 0.00375 µM (active),
Cn1c(=O)c2c(-c3ccccc3)onc2n(C)c1=O,46.8 µM (inactive),26.8 µM (inactive),43.2 µM (inactive),24.5 µM (inactive),21.2 µM (inactive),12.9 µM (inactive),21.3 µM (inactive),49.9 µM (inactive),30.3 µM (inactive),29 µM (inactive),25.2 µM (inactive),40.7 µM (inactive),30.7 µM (inactive),23.8 µM (inactive),31 µM (inactive),20.3 µM (inactive),21.1 µM,15 µM (inactive),43.2 µM (inactive),
CN(C)c1nncc2[nH]cnc12,,> 100 µM (inactive),,> 100 µM (inactive),,> 100 µM (inactive),> 100 µM (inactive),> 100 µM (inactive),> 100 µM (inactive),> 100 µM (inactive),> 100 µM (inactive),> 100 µM (inactive),> 100 µM (inactive),> 100 µM (inactive),> 100 µM (inactive),> 100 µM (inactive),> 100 µM,> 100 µM (inactive),> 100 µM (inactive),> 100 µM (inactive)
CC1(C)OC(=S)N(c2ccccc2)C12C=Cc1cc3ccccc3cc1O2 (configuration not stated),,> 100 µM (inactive),> 100 µM (inactive),> 100 µM (inactive),> 100 µM (inactive),> 100 µM (inactive),> 100 µM (inactive),> 100 µM (inactive),41.3 µM (inactive),> 100 µM (inactive),> 100 µM (inactive),> 100 µM (inactive),> 100 µM (inactive),> 100 µM (inactive),> 100 µM (inactive),6.28 µM (inactive),> 100 µM,92 µM (inactive),> 100 µM (inactive),16.6 µM (inactive)
C/C(=N\NC1=NCCN1)c1cn(C2=NCCN2)nc1C,> 100 µM (inactive),,> 100 µM (inactive),> 100 µM (inactive),,> 100 µM (inactive),> 100 µM (inactive),> 100 µM (inactive),59.6 µM (inactive),> 100 µM (inactive),> 100 µM (inactive),> 100 µM (inactive),> 100 µM (inactive),> 100 µM (inactive),> 100 µM (inactive),> 100 µM (inactive),> 100 µM,> 100 µM (inactive),> 100 µM (inactive),
CC(=O)CN/C(C)=N/Nc1ccc([N+](=O)[O-])cc1[N+](=O)[O-],70.5 µM (inactive),> 100 µM (inactive),> 100 µM (inactive),> 100 µM (inactive),> 100 µM (inactive),> 100 µM (inactive),> 100 µM (inactive),> 100 µM (inactive),5.2 µM (inactive),> 100 µM (inactive),> 100 µM (inactive),> 100 µM (inactive),> 100 µM (inactive),> 100 µM (inactive),> 100 µM (inactive),> 100 µM (inactive),> 100 µM,> 100 µM (inactive),> 100 µM (inactive),
Cc1ccc2c(c1)SSSSS2,17.7 µM (inactive),30.5 µM (inactive),18.3 µM (inactive),26.9 µM (inactive),16.2 µM (inactive),18.6 µM (inactive),20.4 µM (inactive),25.6 µM (inactive),22.1 µM (inactive),15.8 µM (inactive),28.1 µM (inactive),20.6 µM (inactive),19.1 µM (inactive),12.6 µM (inactive),22.1 µM (inactive),19.3 µM (inactive),14.1 µM,,29.4 µM (inactive),20 µM (inactive)
O=C(Sc1c(-c2ccccc2)c(=O)n(-c2ccccc2)c(=S)n1-c1ccccc1)c1cccs1,86.3 µM (inactive),18.7 µM (inactive),> 100 µM (inactive),> 100 µM (inactive),11.4 µM (inactive),50.4 µM (inactive),> 100 µM (inactive),,25.1 µM (inactive),49.8 µM (inactive),72.3 µM (inactive),> 100 µM (inactive),19.2 µM (inactive),> 100 µM (inactive),> 100 µM (inactive),49.7 µM (inactive),34.7 µM,24.4 µM (inactive),> 100 µM (inactive),76 µM (inactive)
CC1(C)OC(=O)N(c2ccccc2)C12C=Cc1cc([N+](=O)[O-])cc([N+](=O)[O-])c1O2 (configuration not stated),,> 100 µM (inactive),92 µM (inactive),59.8 µM (inactive),> 100 µM (inactive),> 100 µM (inactive),> 100 µM (inactive),> 100 µM (inactive),89.3 µM (inactive),> 100 µM (inactive),> 100 µM (inactive),> 100 µM (inactive),> 100 µM (inactive),> 100 µM (inactive),> 100 µM (inactive),> 100 µM (inactive),> 100 µM,> 100 µM (inactive),> 100 µM (inactive),61.9 µM (inactive)
